# Reference: patent US12435059B2, “AMP-activated protein kinase inhibitors and methods of making and using the same” (The Regents of the University of Colorado, priority 2019, dated 2025)
# Legend:
# Experiment in all cases: biochemical
# Assay type in all cases: binding
# 468 kinases [1] = biological target: 468 kinases (Homo sapiens, UniProt O00238); conditions: BMPR1B; read-out: % Inhibition @ 100 nM
# 468 kinases [2] = biological target: 468 kinases (Homo sapiens, UniProt O14976); conditions: GAK; read-out: % Inhibition @ 100 nM
# 468 kinases [3] = biological target: 468 kinases (Homo sapiens, UniProt O43318); conditions: TAK1; read-out: % Inhibition @ 100 nM
# 468 kinases [4] = biological target: 468 kinases (Homo sapiens, UniProt O43683); conditions: BUB1; read-out: % Inhibition @ 100 nM
# 468 kinases [5] = biological target: 468 kinases (Homo sapiens, UniProt O75116); conditions: ROCK2; read-out: % Inhibition @ 100 nM
# 468 kinases [6] = biological target: 468 kinases (Homo sapiens, UniProt O75460); conditions: ERN1; read-out: % Inhibition @ 100 nM
# 468 kinases [7] = biological target: 468 kinases (Homo sapiens, UniProt P00533, L858R); conditions: EGFR(L858R); read-out: % Inhibition @ 100 nM
# 468 kinases [8] = biological target: 468 kinases (Homo sapiens, UniProt P04049); conditions: RAF1; read-out: % Inhibition @ 100 nM
# 468 kinases [9] = biological target: 468 kinases (Homo sapiens, UniProt P06241); conditions: FYN; read-out: % Inhibition @ 100 nM
# 468 kinases [10] = biological target: 468 kinases (Homo sapiens, UniProt P07332); conditions: FES; read-out: % Inhibition @ 100 nM
# 468 kinases [11] = biological target: 468 kinases (Homo sapiens, UniProt P07949, V804M); conditions: RET(V804M); read-out: % Inhibition @ 100 nM
# 468 kinases [12] = biological target: 468 kinases (Homo sapiens, UniProt P08631); conditions: HCK; read-out: % Inhibition @ 100 nM
# 468 kinases [13] = biological target: 468 kinases (Homo sapiens, UniProt P10721, A829P); conditions: KIT(A829P); read-out: % Inhibition @ 100 nM
# 468 kinases [14] = biological target: 468 kinases (Homo sapiens, UniProt P10721, T670I/V559D); conditions: KIT(V559D,T6701); read-out: % Inhibition @ 100 nM
# 468 kinases [15] = biological target: 468 kinases (Homo sapiens, UniProt P21709); conditions: EPHA1; read-out: % Inhibition @ 100 nM
# 468 kinases [16] = biological target: 468 kinases (Homo sapiens, UniProt P33981); conditions: TTK; read-out: % Inhibition @ 100 nM
# 468 kinases [17] = biological target: 468 kinases (Homo sapiens, UniProt P42685); conditions: FRK; read-out: % Inhibition @ 100 nM
# 468 kinases [18] = biological target: 468 kinases (Homo sapiens, UniProt P45984); conditions: JNK2; read-out: % Inhibition @ 100 nM
# 468 kinases [19] = biological target: 468 kinases (Homo sapiens, UniProt P51817); conditions: PRKX; read-out: % Inhibition @ 100 nM
# 468 kinases [20] = biological target: 468 kinases (Homo sapiens, UniProt Q02763); conditions: TIE2; read-out: % Inhibition @ 100 nM
# 468 kinases [21] = biological target: 468 kinases (Homo sapiens, UniProt Q12852); conditions: DLK; read-out: % Inhibition @ 100 nM
# 468 kinases [22] = biological target: 468 kinases (Homo sapiens, UniProt Q13164); conditions: ERK5; read-out: % Inhibition @ 100 nM
# 468 kinases [23] = biological target: 468 kinases (Homo sapiens, UniProt Q13233); conditions: MAP3K1; read-out: % Inhibition @ 100 nM
# 468 kinases [24] = biological target: 468 kinases (Homo sapiens, UniProt Q32MK0); conditions: MLCK; read-out: % Inhibition @ 100 nM
# 468 kinases [25] = biological target: 468 kinases (Homo sapiens, UniProt Q7KZI7); conditions: MARK2; read-out: % Inhibition @ 100 nM
# 468 kinases [26] = biological target: 468 kinases (Homo sapiens, UniProt Q86UX6); conditions: YANK3; read-out: % Inhibition @ 100 nM
# 468 kinases [27] = biological target: 468 kinases (Homo sapiens, UniProt Q86Y07); conditions: VRK2; read-out: % Inhibition @ 100 nM
# 468 kinases [28] = biological target: 468 kinases (Homo sapiens, UniProt Q96D53); conditions: ADCK4; read-out: % Inhibition @ 100 nM
# 468 kinases [29] = biological target: 468 kinases (Homo sapiens, UniProt Q96Q40); conditions: PFTAIRE2; read-out: % Inhibition @ 100 nM
# 468 kinases [30] = biological target: 468 kinases (Homo sapiens, UniProt Q9BYT3); conditions: STK33; read-out: % Inhibition @ 100 nM
# 468 kinases [31] = biological target: 468 kinases (Homo sapiens, UniProt Q9NYY3); conditions: PLK2; read-out: % Inhibition @ 100 nM
# 468 kinases [32] = biological target: 468 kinases (Homo sapiens, UniProt Q9P2K8, S808G); conditions: GCN2(Kin.Dom.2,S808G); read-out: % Inhibition @ 100 nM
# 468 kinases [33] = biological target: 468 kinases (Plasmodium falciparum, UniProt P61075); conditions: PFPK5 (P.falciparum); read-out: % Inhibition @ 100 nM
Compound,inhibition at 0.1 µM (468 kinases [1]) [%],inhibition at 0.1 µM (468 kinases [2]) [%],inhibition at 0.1 µM (468 kinases [3]) [%],inhibition at 0.1 µM (468 kinases [4]) [%],inhibition at 0.1 µM (468 kinases [5]) [%],inhibition at 0.1 µM (468 kinases [6]) [%],inhibition at 0.1 µM (468 kinases [7]) [%],inhibition at 0.1 µM (468 kinases [8]) [%],inhibition at 0.1 µM (468 kinases [9]) [%],inhibition at 0.1 µM (468 kinases [10]) [%],inhibition at 0.1 µM (468 kinases [11]) [%],inhibition at 0.1 µM (468 kinases [12]) [%],inhibition at 0.1 µM (468 kinases [13]) [%],inhibition at 0.1 µM (468 kinases [14]) [%],inhibition at 0.1 µM (468 kinases [15]) [%],inhibition at 0.1 µM (468 kinases [16]) [%],inhibition at 0.1 µM (468 kinases [17]) [%],inhibition at 0.1 µM (468 kinases [18]) [%],inhibition at 0.1 µM (468 kinases [19]) [%],inhibition at 0.1 µM (468 kinases [20]) [%],further results
"CCN(CC)CCNC(=O)c1c(C)[nH]c(/C=C2\C(=O)Nc3ccc(CCO)cc32)c1C [Compound No. 10, (Z)—N-(2-(Diethylamino)ethyl)-5-((5-(2-hydroxyethyl)-2-oxoindolin-3-ylidene)methyl)-2,4-dimethyl-1H-pyrrole-3-carboxamide]",0,36,59,0,29,0,0,9,0,20,86,2,0,72,0,0,0,0,0,0,inhibition at 0.1 µM (468 kinases [21]): 86%; inhibition at 0.1 µM (468 kinases [22]): 6%; inhibition at 0.1 µM (468 kinases [23]): 0%; inhibition at 0.1 µM (468 kinases [24]): 0%; inhibition at 0.1 µM (468 kinases [25]): 6%; inhibition at 0.1 µM (468 kinases [26]): 22%; inhibition at 0.1 µM (468 kinases [27]): 0%; inhibition at 0.1 µM (468 kinases [28]): 0%; inhibition at 0.1 µM (468 kinases [29]): 0%; inhibition at 0.1 µM (468 kinases [30]): 70%; inhibition at 0.1 µM (468 kinases [31]): 0%; inhibition at 0.1 µM (468 kinases [32]): 28%; inhibition at 0.1 µM (468 kinases [33]): 0%
"CCN(CC)CCNC(=O)c1c(C)[nH]c(/C=C2\C(=O)Nc3ccc(CCC(N)=O)cc32)c1C [Compound No. 16, (Z)-5-((5-(3-Amino-3-oxopropyl)-2-oxoindolin-3-ylidene)methyl)-N-(2-(diethylamino)ethyl)-2,4-dimethyl-1H-pyrrole-3-carboxamide]",28,35,61,21,44,10,32,0,95,0,99.3,0,35,23,0,8,38,32,9,0,inhibition at 0.1 µM (468 kinases [21]): 100%; inhibition at 0.1 µM (468 kinases [22]): 100%; inhibition at 0.1 µM (468 kinases [23]): 36%; inhibition at 0.1 µM (468 kinases [24]): 0%; inhibition at 0.1 µM (468 kinases [25]): 40%; inhibition at 0.1 µM (468 kinases [26]): 0%; inhibition at 0.1 µM (468 kinases [27]): 39%; inhibition at 0.1 µM (468 kinases [28]): 0%; inhibition at 0.1 µM (468 kinases [29]): 0%; inhibition at 0.1 µM (468 kinases [30]): 78%; inhibition at 0.1 µM (468 kinases [31]): 19%; inhibition at 0.1 µM (468 kinases [32]): 0%; inhibition at 0.1 µM (468 kinases [33]): 40%
